Calls of active or inactive are those of the source. No cut-off for these calls is given here.
Assays:
[1] = test system: GBM; assay: Tumoricidal effect in patient derived GBM 448T cells assessed as reduction in neurosphere formation at 20 uM after 1 to 2 weeks by 3D tumor clonogenic assay; assay type: functional, cell-based; conditions: Homo sapiens
[2] = test system: GBM; assay: Tumoricidal effect in patient derived GBM 096T cells assessed as reduction in neurosphere formation at 20 uM after 1 to 2 weeks by 3D tumor clonogenic assay; assay type: functional, cell-based; conditions: Homo sapiens
[3] = test system: GBM; assay: Tumoricidal effect in patient derived GBM 025T cells assessed as reduction in neurosphere formation at 20 uM after 1 to 2 weeks by 3D tumor clonogenic assay; assay type: functional, cell-based; conditions: Homo sapiens
[4] = test system: GBM; assay: Tumoricidal effect in patient derived GBM 464T cells assessed as reduction in neurosphere formation at 20 uM after 1 to 2 weeks by 3D tumor clonogenic assay; assay type: functional, cell-based; conditions: Homo sapiens
[5] = test system: GBM; assay: Tumoricidal effect in patient derived GBM 047T cells assessed as reduction in neurosphere formation at 20 uM after 1 to 2 weeks by 3D tumor clonogenic assay; assay type: functional, cell-based; conditions: Homo sapiens
[6] = target: Translocator protein (Rattus norvegicus) (UniProt P16257); assay: Displacement of [3H]PK11195 from TSPO receptor in Sprague-Dawley rat cerebral cortex membrane at 10 uM by radiometric competitive assay; assay type: tissue-based
[7] = Antiproliferative activity against human GBM2 cells assessed as reduction in cell viability at 10 uM incubated for 72 hrs by WST-1 method; assay type: functional; conditions: GBM2, 72 h
[8] = Antiproliferative activity against human GBM2 cells assessed as reduction in cell viability incubated for 72 hrs by WST-1 method; assay type: functional, cell-based; conditions: GBM2, 72 h
[9] = target: Translocator protein (Rattus norvegicus) (UniProt P16257); assay: Displacement of [3H]PK11195 from TSPO receptor in Sprague-Dawley rat cerebral cortex membrane at 10 nM by radiometric competitive assay; assay type: tissue-based
[10] = target: Translocator protein (Rattus norvegicus, UniProt P16257); assay: Displacement of [3H]PK11195 from TSPO receptor in Sprague-Dawley rat cerebral cortex membrane by radiometric competitive assay; assay type: tissue-based
[11] = target: Translocator protein (Rattus norvegicus) (UniProt P16257); assay: Displacement of [3H]PK11195 from TSPO receptor in Sprague-Dawley rat cerebral cortex membrane at 1 uM by radiometric competitive assay; assay type: tissue-based
[12] = target: Translocator protein (Rattus norvegicus) (UniProt P16257); assay: Displacement of [3H]PK11195 from TSPO receptor in Sprague-Dawley rat cerebral cortex membrane at 1 nM by radiometric competitive assay; assay type: tissue-based
[13] = Antiproliferative activity against human GBM3 cells assessed as reduction in cell viability incubated for 72 hrs by WST-1 method; assay type: functional, cell-based; conditions: GBM3, 72 h
[14] = Antiproliferative activity against human GBM1 cells assessed as reduction in cell viability at 10 uM incubated for 72 hrs by WST-1 method; assay type: functional; conditions: GBM1, 72 h
[15] = Selectivity index, ratio of IC50 for normal human astrocytes to IC50 for human GBM3 cells
[16] = Selectivity index, ratio of IC50 for normal human astrocytes to IC50 for human GBM2 cells
[17] = test system: GBM1; assay: Induction of apoptosis in human GBM1 cells assessed as loss of mitochondrial membrane potential at 10 uM after 2 hrs by JC-1 staining based fluorescence microscopy; assay type: functional, cell-based
[18] = target: Translocator protein (Rattus norvegicus) (UniProt P16257); assay: Displacement of [3H]PK11195 from TSPO receptor in Sprague-Dawley rat cerebral cortex membrane at 100 nM by radiometric competitive assay; assay type: tissue-based
[19] = Cytotoxicity against normal human astrocytes assessed as cell viability incubated for 72 hrs by WST-1 method; assay type: cell-based; conditions: Astrocyte
[20] = Selectivity index, ratio of IC50 for normal human astrocytes to IC50 for human GBM1 cells
[21] = Antiproliferative activity against human GBM1 cells assessed as reduction in cell viability incubated for 72 hrs by WST-1 method; assay type: functional, cell-based; conditions: GBM1, 72 h
[22] = Antiproliferative activity against human GBM3 cells assessed as reduction in cell viability at 10 uM incubated for 72 hrs by WST-1 method; assay type: functional; conditions: GBM3, 72 h
[23] = target: Translocator protein (Rattus norvegicus) (UniProt P16257); conditions: Sprague-Dawley, Cerebral cortex, Membrane, 0.1 nM

Row | inhibition [6] | inhibition [9] | IC50 [10] | inhibition [11] | inhibition [12] | inhibition [18] | Structure (SMILES) | inhibition at 10 µM [7] | IC50 [8] | IC50 [13] | inhibition at 10 µM [14] | Ratio IC50 [15] | Ratio IC50 [16] | Activity [17] | IC50 [19] | Ratio IC50 [20] | IC50 [21] | inhibition at 10 µM [22] | further results
1 | – | – | – | – | – | – | Cn1nnc2c(C(N)=O)ncn2c1=O | – | – | – | – | – | – | – | – | – | – | – | Activity [1]: inactive; Activity [2]: inactive; Activity [3]: inactive; Activity [4]: Active; Activity [5]: Active
2 | 84% | 19% | 0.447 µM | 57% | 1% | 37% | O=C(Nc1ccc(Cl)c(Cl)c1)Nc1cc2ncncc2cc1OCc1ccccc1Cl | 98.9% | 1.3 µM | 1.2 µM | 87.5% | >7 | >7 | Active | > 10 µM | >7 | 1.8 µM | 104% | –
3 | – | 45% | – | 100% | 7% | 90% | CCC(C)N(C)C(=O)c1cc2ccccc2c(-c2ccccc2Cl)n1 (stereo not drawn) | – | – | – | – | – | – | – | – | – | – | – | inhibition [23]: 0%
4 | 86% | 8% | 1.32 µM | 42% | 3% | 16% | O=C(Nc1ccc(Cl)c(Cl)c1)Nc1cc2ncncc2cc1OCc1cccc(F)c1 | 99.1% | 1.5 µM | 2 µM | 98.6% | 4 | 4 | Active | 7.4 µM | 4 | 2.1 µM | 104% | –
5 | 80% | 6% | 2.79 µM | 23% | 2% | 14% | O=C(Nc1cccc(Cl)c1)Nc1cc2ncncc2cc1OCc1ccccc1Cl | 97.2% | 2.1 µM | 2.8 µM | 78.5% | >4 | >4 | Active | > 10 µM | >4 | 2.6 µM | 103% | –
6 | 75% | 9% | 0.703 µM | 53% | 3% | 34% | O=C(Nc1cc2ncncc2cc1OCc1cccc(F)c1)Nc1cccc2ccccc12 | 94.9% | 1.4 µM | 1.2 µM | 92.6% | >7.7 | >7.7 | Active | > 10 µM | >7.7 | 1.3 µM | 92.9% | –
